Test results reported in patent US20170066759A1, “AROMATIC 5-MEMBERED HETEROCYCLIC DERIVATIVE HAVING TRPV4-INHIBITING ACTIVITY” (Shionogi & Co., Ltd., priority 2012, published 2017).

Molecular target: T1, human TRPV4 (hTRPV4/CHO cells) (Homo sapiens, UniProt Q9HBA0)
T1 construct: expressed in transfected cells; host or cells: CHO-K1
Assay: Test Example 1: TRPV4 inhibitory activity (IC50 value), 4α-PDD stimulation, Fluo4 calcium fluorescence (FLIPR TETRA)
Format: cell-based
Conditions: Test Example 1, 4α-PDD stimulation, read-out: Test 1 IC50

T1 sequence (Q9HBA0 whole entry): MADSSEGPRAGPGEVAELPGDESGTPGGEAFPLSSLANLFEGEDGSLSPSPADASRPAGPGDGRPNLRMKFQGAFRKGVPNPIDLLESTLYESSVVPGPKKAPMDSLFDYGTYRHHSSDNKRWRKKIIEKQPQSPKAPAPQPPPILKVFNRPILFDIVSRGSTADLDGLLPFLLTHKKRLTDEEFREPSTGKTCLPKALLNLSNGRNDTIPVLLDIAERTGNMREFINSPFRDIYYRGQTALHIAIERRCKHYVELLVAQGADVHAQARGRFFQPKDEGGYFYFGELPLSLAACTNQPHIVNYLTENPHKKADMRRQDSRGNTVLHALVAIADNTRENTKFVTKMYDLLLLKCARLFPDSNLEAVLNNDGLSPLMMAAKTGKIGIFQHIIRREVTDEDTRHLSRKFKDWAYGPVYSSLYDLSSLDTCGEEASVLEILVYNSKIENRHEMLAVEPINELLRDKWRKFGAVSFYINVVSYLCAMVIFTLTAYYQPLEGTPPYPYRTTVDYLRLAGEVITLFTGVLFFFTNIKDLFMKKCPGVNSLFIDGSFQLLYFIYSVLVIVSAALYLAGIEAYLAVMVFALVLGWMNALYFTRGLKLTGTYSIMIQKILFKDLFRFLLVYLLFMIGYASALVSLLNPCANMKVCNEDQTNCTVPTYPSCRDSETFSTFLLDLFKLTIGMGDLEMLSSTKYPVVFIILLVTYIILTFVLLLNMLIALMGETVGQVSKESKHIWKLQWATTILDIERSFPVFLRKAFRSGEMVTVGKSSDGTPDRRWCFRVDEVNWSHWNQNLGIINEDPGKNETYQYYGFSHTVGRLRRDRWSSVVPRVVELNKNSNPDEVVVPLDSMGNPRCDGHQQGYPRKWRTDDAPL

Compound	IC50 [nM]
Cc1nc(C)c(-c2nsc(NC(=O)Cc3ccc(C(O)C(F)(F)F)cc3)n2)s1 (stereo not drawn) [Compound I-544]	1000 to 8000
C=C(C)c1nc(C)sc1-c1csc(NC(=O)Cc2c(F)cccc2F)n1 [Compound I-545]	100 to 1000
O=C(Nc1nc(-c2sc(CO)nc2CO)cs1)C1CC(c2ccccc2)C1 (stereo not drawn) [Compound I-546]	100 to 1000
Cc1nc(CO)sc1-c1csc(NC(=O)C2CC(c3ccccc3)C2)n1 (stereo not drawn) [Compound I-547]	< 100
O=C(Nc1nc(-c2sc(CO)nc2CO)cs1)[C@H]1C[C@H](OCc2ccccc2)C1 [Compound I-548]	100 to 1000
O=C(Nc1nc(-c2sc(CO)nc2CO)cs1)[C@H]1C[C@@H](OCc2ccccc2)C1 [Compound I-549]	1000 to 8000
O=C(Nc1nc(-c2sc(CO)nc2CO)cs1)[C@H]1C[C@@H](OCc2ccc(C(F)(F)F)cc2)C1 [Compound I-550]	100 to 1000
NC(=O)c1nc(CO)c(-c2csc(NC(=O)[C@H]3C[C@@H](OCc4ccc(C(F)(F)F)cc4)C3)n2)s1 [Compound I-551]	100 to 1000
Cc1nc(CO)sc1-c1csc(NC(=O)[C@H]2C[C@H](C(F)F)C2)n1 [Compound I-552]	100 to 1000
Cc1nc(C)c(-c2csc(C(=O)NCc3cccc(F)c3)n2)s1 [II-2]	1000 to 8000
Cc1nc(CO)c(-c2csc(NCCc3c(F)cccc3F)n2)s1 [II-3]	100 to 1000
Cc1nc(C)c(-c2csc(CCOc3ccc(Br)cc3)n2)s1 [II-4]	1000 to 8000
Cc1ccc(-c2csc(NC(=O)C3CC(F)C3)n2)s1 (stereo not drawn) [II-5]	100 to 1000
O=C(Cc1ccc(S(=O)(=O)CC(F)(F)F)cc1)Nc1nc(-c2cccs2)cs1 [II-6]	100 to 1000
O=C(Nc1nc(-c2cccs2)cs1)C1CC(F)C1 (stereo not drawn) [II-7]	1000 to 8000
Cc1ccc(-c2csc(NC(=O)Cc3ccc(S(=O)(=O)CC(F)(F)F)cc3)n2)s1 [II-8]	100 to 1000
Cc1nc(C)c(-c2csc(NC(=N)Cc3ccc(Cl)cc3)n2)s1 [II-31]	1000 to 8000
Cc1nc(CO)sc1-c1csc(Nc2ccccn2)n1 [II-32]	< 100
Cc1nc(C)c(-c2csc(NCC(F)(F)c3ccccc3)n2)s1 [II-33]	1000 to 8000
Cc1nc(C)c(-c2csc(Nc3cnccn3)n2)s1 [II-34]	< 100
Cc1nc(C)c(-c2csc(NCCc3ccccc3)n2)s1 [II-35]	< 100
Cc1nc(C)c(-c2csc(NCCc3ccc(Cl)cc3)n2)s1 [II-36]	< 100
Cc1nc(C)c(-c2csc(NC3CCCCC3)n2)s1 [II-37]	< 100
Cc1nc(C)c(-c2csc(NC3CCCC3)n2)s1 [II-38]	< 100
Cc1nc(C)c(-c2csc(Nc3cccnc3)n2)s1 [II-40]	100 to 1000
Cc1nc(C)c(-c2csc(Nc3ccncc3)n2)s1 [II-41]	1000 to 8000
Cc1nc(C)c(-c2csc(NCCOc3ccccc3)n2)s1 [II-47]	100 to 1000
Cc1nc(C)c(-c2csc(NCC3Cc4ccccc4C3)n2)s1 [II-49]	< 100
Cc1nc(C)c(-c2csc(CCOCc3ccc(Br)cc3)n2)s1 [II-51]	1000 to 8000

Molecular target: T1, human TRPV4 (hTRPV4/CHO cells)
Assay: Test Example 4: TRPV4 inhibitory activity (Ki value), 4α-PDD stimulation, Fluo-3 calcium fluorescence (FDSS 3000)
Format: cell-based
Conditions: 4α-PDD, Fluo-3, Ki calculated from IC50 and EC50 of 4α-PDD, read-out: TRPV4 inhibitory activity (Ki value)
Method: TRPV4 Inhibitory Activity (Ki Value)
For each compound, TRPV4 inhibitory activity was measured using cells.
(Method) The procedures of evaluating TRPV4 inhibitory activity of a compound are as follows.
(1) TRPV4 inhibitory activity was measured using CHO-K1 cells stably expressing human TRPV4 (hTRPV4/CHO cells).
(2) Cells were subcultured using the MEM-α medium (SIGMA M4526: 500 ml), FBS (HyCloneSH30070.03: 10%), L-Glutamine 200 mmol/L (GIBCO: 4 mmol/L), P/S (nacalai tesque: 1%), G418 (nacalai tesque: 1 mg/mL).
(3) The 96-well plates which hTRPV4/CHO cells were seeded at densities of 2×10^4 cells/well in the culture medium in the day before the experimental day, and cultured in a CO2 incubator in the presence of 5% CO2 at 37° C. for 24 hours was used as assay plates.
(4) Cells were washed with assay buffer (Hank's Balanced Salt Solution 9.8 g, 1 mol/L HEPES (pH7.5), 250 mmol/L probenecid).
(5) Fluo-3, fluorescent dye for Ca influx assay was added to each well, then the assay plate was incubated in a CO2 incubator in the presence of 5% CO2 at 37° C. for one hour (final conc.; 5 μmol/L Fluo-3).
(6) The assay plate was washed with the assay buffer, and the buffer was remained at 30 μL/well. Then the assay plate was incubated for 10 min at 37° C.
(7) 20 μL of diluted compound solution was added to each well of assay plate, and mixed with built-in Pipette and Mixer of the fluorescence analysis system FDSS 3000 (Hamamatsu Photonics).
(8) 50 μL of 4α-PDD solution (concluding 0.1% Pluronic F-127) was applied to each well of assay plate and mixed.
(9) The fluorescent intensity was measured by FDSS 3000 for 8 min from the point of time addition the compound solution, at Ex 480 nm, Em 540 nm wavelength.
TRPV4 inhibitory activity (Ki value) of a compound was calculated according to the following procedure.
(10) In the presence of the compound, the difference between maximal and minimal of fluorescent intensity value for 8 min from just before addition of 4α-PDD solution was calculated, and it was referred as Max-Min value. Max-Min value of the Ruthenium Red at 10 μM was defined as 100% inhibitory activity, Max-Min value in the absence of the compound was defined as 0% inhibitory activity. TRPV4 inhibitory activity of the compound was calculated by the following formula.
(1−(Max−Min value of the compound−100% inhibitory activity)/(0% inhibitory activity−100% inhibitory activity))×100
(11) By the following formula, inhibitory activity was calculated at 10 points with three fold serial dilution, in the final concentration of the compound from 10 μmol/L to 0.5 nmol/L. The IC50 value was calculated by dose-response curve.
100−[(fluorescent intensity in the presence of the compound−fluorescent intensity of back ground)/(total fluorescent intensity−fluorescent intensity of back ground)]×100
(12) In the presence of the compound, activity of 4α-PDD was measured at 9 points with three fold serial dilution from 20 μmol/L. Activity of 4α-PDD was calculated by the following formula.
(Max−Min value of the each 4α-PDD concentration−0% activity)/(100% activity−0% activity))×100
(13) Effective activity was calculated in 4α-PDD the above. The EC50 value was calculated by dose-response curve.
(14) The Ki value of a compound was calculated by the following formula.
Ki=IC50 value/1+([A]/EC50)
[A]: Concentration of agonist (nmol/L)

Compound	Ki [nM]
Cc1nc(C)c(-c2csc(NC(=O)Cc3ccc(C(F)(F)F)c(F)c3)n2)s1 [Compound I-20]	34.4

Same assay, conditions: Test Example 4, 4α-PDD stimulation, read-out: Test 4 Ki

Compound	Ki [nM]
Cc1nc(C)c(-c2csc(NC(=O)C3CCC(=O)C3)n2)s1 (racemic) [Compound I-37]	1000 to 3000
Cc1nc(C)c(-c2csc(NC(=O)C3CCC(NCC(F)(F)F)C3)n2)s1 (racemic) [Compound I-39]	100 to 1000
Cc1nc(C)c(-c2csc(NC(=O)[C@H]3CC[C@H](Cl)C3)n2)s1 (racemic) [Compound I-55]	< 100
Cc1nc(C)c(-c2csc(NC(=O)[C@H]3CC[C@H](C#N)C3)n2)s1 (racemic) [Compound I-56]	100 to 1000
Cc1nc(C)c(-c2csc(NC(=O)[C@H]3CC[C@H](S(=O)(=O)CC(F)(F)F)C3)n2)s1 (racemic) [Compound I-57]	100 to 1000
Cc1nc(C)c(-c2csc(NC(=O)[C@H]3CC[C@H](SCC(F)(F)F)C3)n2)s1 (racemic) [Compound I-536]	< 100
Cc1nc(C)c(-c2csc(NC(=O)C(C)(C)c3ccccc3)n2)s1 [Compound I-1]	100 to 1000
COC(C(=O)Nc1nc(-c2sc(C)nc2C)cs1)c1ccccc1 (stereo not drawn) [Compound I-5]	100 to 1000
Cc1nc(C)c(-c2csc(NC(=O)C3CCCO3)n2)s1 (stereo not drawn) [Compound I-6]	1000 to 3000
Cc1nc(C)c(-c2csc(NC(=O)Cc3ccccn3)n2)s1 [Compound I-7]	100 to 1000
Cc1nc(C)c(-c2csc(NC(=O)C(F)c3ccccc3)n2)s1 (stereo not drawn) [Compound I-8]	100 to 1000
Cc1nc(C)c(-c2csc(NC(=O)CC(C)(C)C)n2)s1 [Compound I-9]	100 to 1000
Cc1nc(C)c(-c2csc(NC(=O)c3ccc(F)c(Cl)c3)n2)s1 [Compound I-10]	100 to 1000
Cc1nc(C)c(-c2csc(NC(=O)C(C)(C)Oc3ccc(Cl)cc3)n2)s1 [Compound I-11]	100 to 1000
Cc1nc(C)c(-c2csc(NC(=O)C(C)Oc3ccc(Cl)cc3)n2)s1 (stereo not drawn) [Compound I-12]	100 to 1000
O=C(Cc1ccc(C(F)(F)F)cc1)Nc1nc(-c2sc(Cl)nc2Cl)cs1 [Compound I-15]	100 to 1000
O=C(Cc1ccc(Br)cc1)Nc1nc(-c2cnc(Cl)s2)cs1 [Compound I-16]	100 to 1000
Cc1nc(C)c(-c2csc(NC(=O)Cc3ccc(C(F)(F)F)c(F)c3)n2)s1 [Compound I-20]	< 100
Cc1nc(C)c(-c2csc(NC(=O)Cc3ccc(OC(F)(F)F)cc3)n2)s1 [Compound I-21]	< 100
Cc1nc(C)c(-c2csc(NC(=O)Cc3ccc(SC(F)(F)F)cc3)n2)s1 [Compound I-22]	< 100
C=C(C)c1ncc(-c2csc(NC(=O)Cc3ccc(S(=O)(=O)C(F)(F)F)cc3)n2)s1 [Compound I-25]	100 to 1000
Cc1nc(C)c(-c2csc(NC(=O)C3(O)CC3)n2)s1 [Compound I-26]	100 to 1000
Cc1nc(C)c(-c2csc(NC(=O)C3(C)CC3)n2)s1 [Compound I-28]	100 to 1000
Cc1nc(C)c(-c2csc(NC(=O)CC3CC3)n2)s1 [Compound I-33]	100 to 1000
Cc1nc(C)c(-c2csc(NC(=O)CCC(F)(F)F)n2)s1 [Compound I-38]	< 100
Cc1nc(C)c(-c2csc(NC(=O)CC#N)n2)s1 [Compound I-40]	100 to 1000
Cc1nc(C)c(-c2csc(NC(=O)CCS(=O)(=O)c3ccccc3)n2)s1 [Compound I-41]	100 to 1000
Cc1nc(C)c(-c2csc(NC(=O)Cc3c[nH]c4ccccc34)n2)s1 [Compound I-44]	100 to 1000
Cc1nc(C)c(-c2csc(NC(=O)CC(F)(F)F)n2)s1 [Compound I-45]	100 to 1000
Cc1nc(C)c(-c2csc(NC(=O)Cc3ccc(Cl)c(F)c3)n2)s1 [Compound I-48]	< 100
